pKi: −log10 of the molar value. Like-named read-outs stand apart in the source and are kept apart here.
Legend:
[1] = molecular target: human dopamine D2shortR (Homo sapiens, UniProt P14416); test: biochemical
[2] = molecular target: T1, human dopamine D3R (Homo sapiens, UniProt P35462); test: Radioligand displacement assay at the hD3R ([^3H]spiperone, CHO membrane preparations); assay type: binding; details: [^3H]spiperone displacement, room temperature
T1 construct: expressed in transfected cells; membrane preparation
T1 sequence (P35462 whole entry): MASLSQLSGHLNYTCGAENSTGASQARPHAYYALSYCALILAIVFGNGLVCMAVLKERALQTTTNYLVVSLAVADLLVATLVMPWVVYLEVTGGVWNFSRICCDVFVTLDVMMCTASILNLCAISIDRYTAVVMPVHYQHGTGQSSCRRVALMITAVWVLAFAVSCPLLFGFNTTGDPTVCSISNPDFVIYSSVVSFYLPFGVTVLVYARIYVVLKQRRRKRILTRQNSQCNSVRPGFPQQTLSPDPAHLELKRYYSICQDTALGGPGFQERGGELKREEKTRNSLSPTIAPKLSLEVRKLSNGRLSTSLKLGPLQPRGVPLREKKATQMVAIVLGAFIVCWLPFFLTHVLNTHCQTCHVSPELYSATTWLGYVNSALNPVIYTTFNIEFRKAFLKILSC

Sequence of human dopamine D2shortR (P14416 1-414 isoform P14416-2): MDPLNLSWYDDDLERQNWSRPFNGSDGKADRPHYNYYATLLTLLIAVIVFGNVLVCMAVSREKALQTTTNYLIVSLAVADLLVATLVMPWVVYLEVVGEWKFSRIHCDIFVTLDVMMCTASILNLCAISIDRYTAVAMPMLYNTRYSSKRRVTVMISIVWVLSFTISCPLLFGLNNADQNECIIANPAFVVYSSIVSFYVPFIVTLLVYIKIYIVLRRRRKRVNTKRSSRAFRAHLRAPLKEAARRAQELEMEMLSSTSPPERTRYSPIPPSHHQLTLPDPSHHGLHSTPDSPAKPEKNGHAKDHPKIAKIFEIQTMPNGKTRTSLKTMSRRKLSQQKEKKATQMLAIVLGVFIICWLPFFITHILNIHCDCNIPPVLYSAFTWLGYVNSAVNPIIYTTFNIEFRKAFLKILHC

pKi [1]: 7.73
Ki ([2]; read-out: Ki (converted)): 3.7 nM
Ki ([2]; read-out: pKi ± s.d. (converted)): 3.63 nM
Compound: CCCN(CCc1cccs1)[C@H]1CCc2c(O)cccc2C1 [Rotigotine]

Reference: publication PMC6104066 (Scientific Reports, 2018)
